Key:
IRK = IRK (Homo sapiens, UniProt P06213); assay: Kinase assay, IRK; format: biochemical
Protocol: (§1) Kinase activity and compound inhibition are investigated using one or more assay formats. The ATP concentrations for each assay are selected to be close to the Michaelis-Menten constant (KM) for each individual kinase. Dose-response experiments are performed at 10 different inhibitor concentrations in a 384-well plate format. […] Exemplary kinase assays are described below. KDR Assay

Fyn = Fyn (Homo sapiens, UniProt P06241); assay: Kinase assay, Fyn; format: biochemical
Protocol: as §1

c-Kit kinase = c-Kit kinase (Homo sapiens, UniProt P10721); assay: c-Kit AlphaScreen kinase assay; format: biochemical
EphA2 = EphA2 (Homo sapiens, UniProt P29317); assay: Kinase assay, EphA2 (33P-ATP incorporation or luciferase-coupled ATP consumption); format: biochemical
In short: (§2)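 Radiometric format: γ-33P ATP incorporation into plate-immobilized myelin basic protein, enzyme 10 nM or 20 nM, 10 μM or 30 μM unlabeled ATP, 1 h at room temperature, 1% DMSO, scintillation counting; alternatively luciferase-measured ATP consumption with pEY substrate. ATP set near each kinase's KM; 10-point dose-response.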

Flt3 = molecular target: T1, Flt3 (Homo sapiens, UniProt P36888); assay: Kinase assay, Flt3; format: biochemical
T1 sequence (P36888 27-993): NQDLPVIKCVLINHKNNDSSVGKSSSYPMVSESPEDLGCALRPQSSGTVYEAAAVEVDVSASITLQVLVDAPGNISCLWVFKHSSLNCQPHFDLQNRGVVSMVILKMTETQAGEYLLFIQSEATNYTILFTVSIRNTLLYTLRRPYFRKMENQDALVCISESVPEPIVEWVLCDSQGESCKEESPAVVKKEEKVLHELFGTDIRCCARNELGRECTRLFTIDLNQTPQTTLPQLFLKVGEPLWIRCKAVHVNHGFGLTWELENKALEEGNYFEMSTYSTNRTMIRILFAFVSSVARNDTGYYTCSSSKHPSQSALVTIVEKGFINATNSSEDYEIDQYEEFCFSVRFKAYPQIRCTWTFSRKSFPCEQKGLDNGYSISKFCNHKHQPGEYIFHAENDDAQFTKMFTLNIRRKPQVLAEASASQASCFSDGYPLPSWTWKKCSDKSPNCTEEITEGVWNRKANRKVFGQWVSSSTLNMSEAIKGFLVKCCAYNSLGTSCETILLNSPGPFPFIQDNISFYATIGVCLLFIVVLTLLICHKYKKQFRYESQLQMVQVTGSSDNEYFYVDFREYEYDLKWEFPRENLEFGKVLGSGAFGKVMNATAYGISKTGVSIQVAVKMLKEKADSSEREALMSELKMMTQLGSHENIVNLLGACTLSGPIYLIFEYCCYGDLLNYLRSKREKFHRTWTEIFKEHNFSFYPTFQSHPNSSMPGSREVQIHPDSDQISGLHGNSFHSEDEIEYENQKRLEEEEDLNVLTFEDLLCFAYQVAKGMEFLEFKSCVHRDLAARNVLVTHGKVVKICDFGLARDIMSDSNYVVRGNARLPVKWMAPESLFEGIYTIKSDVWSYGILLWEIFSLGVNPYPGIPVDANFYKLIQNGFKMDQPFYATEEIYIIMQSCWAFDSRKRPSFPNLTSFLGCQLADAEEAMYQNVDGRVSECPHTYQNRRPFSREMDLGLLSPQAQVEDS
Protocol: as §1

ALK = ALK (Homo sapiens, UniProt Q9UM73); assay: Kinase assay, ALK (33P-ATP incorporation or luciferase-coupled ATP consumption); format: biochemical
Protocol: Kinase assays were performed by measurement of incorporation of γ-^33P ATP into immobilized myelin basic protein (MBP). […] Plates were washed 3× with 100 μl TBS. […] Compound dilutions were performed in DMSO and added to assay wells to a final DMSO concentration of 1%. Each data point was measured in duplicate, and at least two duplicate assays were performed for each individual compound determination. Enzyme was added to final concentrations of 10 nM or 20 nM, for example. A mixture of unlabeled ATP and γ-^33P ATP was added to start the reaction (2×10^6 cpm of γ-^33P ATP per well (3000 Ci/mmole) and either 10 μM or 30 μM unlabeled ATP, typically. The reactions were carried out for 1 hour at room temperature with shaking. Plates were washed 7× with TBS, followed by the addition of 50 μl/well scintillation fluid (Wallac). Plates were read using a Wallac Trilux counter. This is only one format of such assays, various other formats are possible, as known to one of ordinary skill in the art.
Tyrosine kinase activity is determined by 1) measurement of kinase-dependent ATP consumption by in the presence of a generic substrate such as, polyglutamic acid, tyrosine, 4:1 (pEY), by luciferase/luciferin-mediated chemiluminescence or; 2) incorporation of radioactive phosphate derived from ^33P-ATP into a generic substrate which has been adsorbed onto the well surface of polystyrene microtiter plates. Phosphorylated substrate products are quantified by scintillation spectrometry.
as §1

EGFR = EGFR (Homo sapiens, UniProt P00533); assay: Kinase assay, EGFR (33P-ATP incorporation or luciferase-coupled ATP consumption); format: biochemical
In short: as §2

FGFR1 = FGFR1 (Homo sapiens, UniProt P11362); assay: Kinase assay, FGFR1 (33P-ATP incorporation or luciferase-coupled ATP consumption); format: biochemical
In short: as §2

[1] = molecular target: T2, KDR (baculovirus expressed human KDR kinase domain D807-V1356) (Homo sapiens, UniProt P35968); assay: biochemical
T2 construct: human KDR kinase domain D807-V1356; host or cells: baculovirus expression system
In short: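 Baculovirus human KDR kinase domain (D807–V1356) with ATP near its KM; 10-point dose-response, 4 h at ambient temperature. Activity taken as percent ATP remaining, detected by luciferase–luciferin chemiluminescence.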

PDGFR alpha = PDGFR alpha (Homo sapiens, UniProt P16234); assay: Kinase assay, PDGFR alpha (33P-ATP incorporation or luciferase-coupled ATP consumption); format: biochemical; settings: read-out: PDGF-R-A IC50
In short: as §2

Sequence of EGFR (P00533 25-1210, species assumed): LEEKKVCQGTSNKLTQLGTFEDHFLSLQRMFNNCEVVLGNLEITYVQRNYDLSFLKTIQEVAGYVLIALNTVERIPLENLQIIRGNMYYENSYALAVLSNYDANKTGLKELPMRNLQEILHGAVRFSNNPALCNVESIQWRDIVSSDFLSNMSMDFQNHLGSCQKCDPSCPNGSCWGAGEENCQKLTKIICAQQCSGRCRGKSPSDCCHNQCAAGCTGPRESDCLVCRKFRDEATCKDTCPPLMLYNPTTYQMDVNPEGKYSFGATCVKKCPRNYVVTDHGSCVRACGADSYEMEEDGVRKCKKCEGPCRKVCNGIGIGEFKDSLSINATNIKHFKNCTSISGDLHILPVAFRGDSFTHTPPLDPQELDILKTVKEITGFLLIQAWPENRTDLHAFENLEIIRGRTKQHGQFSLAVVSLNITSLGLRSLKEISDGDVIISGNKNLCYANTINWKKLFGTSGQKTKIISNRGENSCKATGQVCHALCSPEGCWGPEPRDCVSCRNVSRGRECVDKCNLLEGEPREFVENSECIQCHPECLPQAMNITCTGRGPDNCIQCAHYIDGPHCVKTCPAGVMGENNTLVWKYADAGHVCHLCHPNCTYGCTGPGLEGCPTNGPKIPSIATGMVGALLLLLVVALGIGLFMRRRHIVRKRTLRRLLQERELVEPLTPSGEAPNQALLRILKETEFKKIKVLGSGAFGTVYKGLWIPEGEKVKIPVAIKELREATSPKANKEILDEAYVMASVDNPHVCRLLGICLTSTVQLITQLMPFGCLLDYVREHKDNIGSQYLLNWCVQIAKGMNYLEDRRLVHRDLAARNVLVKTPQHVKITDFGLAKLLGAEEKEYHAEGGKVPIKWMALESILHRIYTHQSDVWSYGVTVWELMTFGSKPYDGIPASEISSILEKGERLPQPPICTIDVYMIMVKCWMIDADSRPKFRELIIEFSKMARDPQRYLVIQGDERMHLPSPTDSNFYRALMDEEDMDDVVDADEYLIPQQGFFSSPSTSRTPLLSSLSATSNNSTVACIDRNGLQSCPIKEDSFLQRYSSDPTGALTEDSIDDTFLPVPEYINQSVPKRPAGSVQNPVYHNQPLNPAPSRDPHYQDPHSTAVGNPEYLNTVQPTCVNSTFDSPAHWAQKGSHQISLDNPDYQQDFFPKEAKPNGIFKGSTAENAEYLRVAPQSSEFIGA
Sequence of IRK (P06213 28-1382): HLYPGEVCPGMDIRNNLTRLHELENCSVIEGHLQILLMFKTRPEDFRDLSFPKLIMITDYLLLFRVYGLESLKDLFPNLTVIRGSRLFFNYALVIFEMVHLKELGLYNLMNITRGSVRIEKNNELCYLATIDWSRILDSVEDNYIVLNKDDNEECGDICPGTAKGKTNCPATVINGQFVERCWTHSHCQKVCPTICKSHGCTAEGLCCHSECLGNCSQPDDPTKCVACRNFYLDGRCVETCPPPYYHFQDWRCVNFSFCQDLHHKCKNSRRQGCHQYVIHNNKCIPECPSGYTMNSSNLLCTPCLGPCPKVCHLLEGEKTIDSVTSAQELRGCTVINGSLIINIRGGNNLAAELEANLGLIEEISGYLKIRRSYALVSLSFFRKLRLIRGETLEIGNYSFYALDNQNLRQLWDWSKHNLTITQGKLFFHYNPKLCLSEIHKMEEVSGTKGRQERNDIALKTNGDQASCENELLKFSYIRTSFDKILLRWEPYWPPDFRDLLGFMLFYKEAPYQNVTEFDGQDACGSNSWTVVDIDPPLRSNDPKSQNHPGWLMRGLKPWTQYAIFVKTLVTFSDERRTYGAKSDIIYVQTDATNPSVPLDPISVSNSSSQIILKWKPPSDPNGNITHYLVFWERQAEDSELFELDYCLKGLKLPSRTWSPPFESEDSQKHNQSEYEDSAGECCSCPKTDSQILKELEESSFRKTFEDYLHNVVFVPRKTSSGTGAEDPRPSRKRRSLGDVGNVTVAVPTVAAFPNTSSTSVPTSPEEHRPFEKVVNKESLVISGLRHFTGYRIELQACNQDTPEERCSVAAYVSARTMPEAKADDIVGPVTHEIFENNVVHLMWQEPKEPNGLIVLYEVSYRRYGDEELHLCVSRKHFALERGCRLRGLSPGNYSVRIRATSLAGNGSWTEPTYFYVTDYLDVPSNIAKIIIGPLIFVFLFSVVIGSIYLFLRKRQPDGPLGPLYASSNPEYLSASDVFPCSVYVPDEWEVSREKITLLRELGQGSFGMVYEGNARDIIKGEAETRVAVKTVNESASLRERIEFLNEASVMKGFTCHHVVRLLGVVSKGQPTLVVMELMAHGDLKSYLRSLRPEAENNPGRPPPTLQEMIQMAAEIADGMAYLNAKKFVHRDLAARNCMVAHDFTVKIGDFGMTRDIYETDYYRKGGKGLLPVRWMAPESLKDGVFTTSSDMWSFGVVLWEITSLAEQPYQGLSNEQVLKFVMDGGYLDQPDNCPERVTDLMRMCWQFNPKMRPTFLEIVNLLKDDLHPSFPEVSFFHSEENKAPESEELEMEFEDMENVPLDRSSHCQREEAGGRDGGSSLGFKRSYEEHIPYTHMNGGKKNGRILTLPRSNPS
Sequence of PDGFR alpha (P16234 24-1089): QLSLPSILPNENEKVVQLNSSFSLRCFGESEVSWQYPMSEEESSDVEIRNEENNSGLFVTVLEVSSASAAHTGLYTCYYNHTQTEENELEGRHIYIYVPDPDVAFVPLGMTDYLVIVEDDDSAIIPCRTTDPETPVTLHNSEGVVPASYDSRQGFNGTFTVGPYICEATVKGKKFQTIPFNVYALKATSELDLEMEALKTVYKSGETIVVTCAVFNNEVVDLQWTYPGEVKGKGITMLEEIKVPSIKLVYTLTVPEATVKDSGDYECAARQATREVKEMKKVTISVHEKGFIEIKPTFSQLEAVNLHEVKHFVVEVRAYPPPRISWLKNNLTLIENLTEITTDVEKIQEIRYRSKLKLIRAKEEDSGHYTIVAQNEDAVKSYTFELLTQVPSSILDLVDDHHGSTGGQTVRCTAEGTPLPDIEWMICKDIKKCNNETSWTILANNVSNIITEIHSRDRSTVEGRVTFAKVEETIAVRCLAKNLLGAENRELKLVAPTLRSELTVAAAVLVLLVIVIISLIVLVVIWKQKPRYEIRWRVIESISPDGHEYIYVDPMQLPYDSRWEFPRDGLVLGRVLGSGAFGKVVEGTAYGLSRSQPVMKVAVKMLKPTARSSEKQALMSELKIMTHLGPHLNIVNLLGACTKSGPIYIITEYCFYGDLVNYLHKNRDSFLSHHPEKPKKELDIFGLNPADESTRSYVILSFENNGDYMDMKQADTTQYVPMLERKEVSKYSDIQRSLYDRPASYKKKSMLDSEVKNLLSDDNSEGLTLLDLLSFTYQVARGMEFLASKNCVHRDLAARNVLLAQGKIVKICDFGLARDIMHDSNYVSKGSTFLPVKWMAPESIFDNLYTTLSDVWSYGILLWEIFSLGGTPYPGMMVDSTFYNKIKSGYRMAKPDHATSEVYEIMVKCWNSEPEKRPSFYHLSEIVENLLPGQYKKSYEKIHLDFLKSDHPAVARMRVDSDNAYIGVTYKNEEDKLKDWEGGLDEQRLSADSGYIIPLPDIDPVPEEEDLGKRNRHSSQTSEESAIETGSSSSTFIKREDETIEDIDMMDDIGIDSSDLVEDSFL
Sequence of EphA2 (P29317 24-976, species assumed): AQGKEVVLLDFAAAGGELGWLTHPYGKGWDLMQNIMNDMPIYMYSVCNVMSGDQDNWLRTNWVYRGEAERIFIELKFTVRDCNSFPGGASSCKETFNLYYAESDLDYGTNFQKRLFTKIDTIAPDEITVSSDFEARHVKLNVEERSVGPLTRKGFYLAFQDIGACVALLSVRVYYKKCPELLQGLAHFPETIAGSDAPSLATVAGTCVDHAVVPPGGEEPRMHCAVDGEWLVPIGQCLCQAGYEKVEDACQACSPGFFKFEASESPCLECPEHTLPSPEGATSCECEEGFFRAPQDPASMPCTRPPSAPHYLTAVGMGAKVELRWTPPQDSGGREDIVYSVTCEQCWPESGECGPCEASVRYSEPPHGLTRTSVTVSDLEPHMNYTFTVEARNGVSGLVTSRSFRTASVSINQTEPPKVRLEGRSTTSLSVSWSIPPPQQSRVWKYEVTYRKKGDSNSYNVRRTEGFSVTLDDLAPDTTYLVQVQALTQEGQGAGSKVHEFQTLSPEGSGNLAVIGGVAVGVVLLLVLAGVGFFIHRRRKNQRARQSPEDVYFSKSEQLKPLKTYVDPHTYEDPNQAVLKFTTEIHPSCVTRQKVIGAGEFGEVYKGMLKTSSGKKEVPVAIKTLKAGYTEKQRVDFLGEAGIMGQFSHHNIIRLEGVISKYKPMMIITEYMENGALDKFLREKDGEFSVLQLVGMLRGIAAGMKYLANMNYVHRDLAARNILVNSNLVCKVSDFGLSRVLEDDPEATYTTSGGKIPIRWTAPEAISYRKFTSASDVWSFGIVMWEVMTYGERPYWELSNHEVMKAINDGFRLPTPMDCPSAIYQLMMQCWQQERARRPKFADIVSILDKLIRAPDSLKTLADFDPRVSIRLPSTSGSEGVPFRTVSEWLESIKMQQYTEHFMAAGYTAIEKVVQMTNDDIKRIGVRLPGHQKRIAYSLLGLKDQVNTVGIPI
Sequence of Fyn (P06241 whole entry, species assumed): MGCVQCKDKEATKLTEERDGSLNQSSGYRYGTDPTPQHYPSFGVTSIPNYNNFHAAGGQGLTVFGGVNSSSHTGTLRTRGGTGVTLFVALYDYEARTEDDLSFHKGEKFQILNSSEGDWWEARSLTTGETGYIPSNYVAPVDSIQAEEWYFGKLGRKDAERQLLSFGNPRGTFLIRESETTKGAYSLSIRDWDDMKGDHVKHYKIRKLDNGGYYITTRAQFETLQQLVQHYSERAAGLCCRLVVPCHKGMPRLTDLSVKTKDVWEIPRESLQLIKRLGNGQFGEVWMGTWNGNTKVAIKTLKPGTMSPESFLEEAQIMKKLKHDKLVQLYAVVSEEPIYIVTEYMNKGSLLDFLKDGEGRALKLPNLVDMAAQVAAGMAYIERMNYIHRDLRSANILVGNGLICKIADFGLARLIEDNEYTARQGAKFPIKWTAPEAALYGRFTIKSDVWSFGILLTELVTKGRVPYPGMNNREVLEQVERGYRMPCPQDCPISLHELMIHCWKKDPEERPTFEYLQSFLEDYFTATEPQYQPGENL

SMILES	IC50 (IRK) [nM]	IC50 (Fyn) [nM]	IC50 (c-Kit kinase) [nM]	IC50 (EphA2) [nM]	IC50 (Flt3) [nM]	IC50 (ALK) [nM]	IC50 (EGFR) [nM]	IC50 (FGFR1) [nM]	IC50 [1] [nM]	IC50 (PDGFR alpha) [nM]
CCN1CCC(Nc2ccc3c(c2)/C(=C(\c2cc(F)cc(F)c2)c2nc(C)c[nH]2)C(=O)N3)CC1 [Entry 74, (3Z)-3-[(3,5-difluorophenyl)(4-methyl-1H-imidazol-2-yl)methylidene]-5-[(1-ethylpiperidin-4-yl)amino]-1,3-dihydro-2H-indol-2-one]	500 to 5000	< 50	< 50	50 to 500	< 50	50 to 500	50 to 500			
CCN1CCC(Nc2ccc3c(c2)/C(=C(/c2ncc[nH]2)c2cc(F)c(Cl)cc2Cl)C(=O)N3)CC1 [Entry 116, (3Z)-3-[(2,4-dichloro-5-fluorophenyl) (1H-imidazol-2-yl)methylidene]-5-[(1-ethylpiperidin-4-yl)amino]-1,3-dihydro-2H-indol-2-one]	500 to 5000	< 50	< 50	500 to 5000	< 50		50 to 500	< 50	< 50	< 50
CCN1CCC(Nc2ccc3c(c2)/C(=C(/c2nc(C)c[nH]2)c2cc(F)c(Cl)cc2Cl)C(=O)N3)CC1 [Entry 117, (3Z)-3-[(2,4-dichloro-5-fluorophenyl)(4-methyl-1H-imidazol-2-yl)methylidene]-5-[(1-ethylpiperidin-4-yl)amino]-1,3-dihydro-2H-indol-2-one]	500 to 5000	< 50	< 50	500 to 5000	< 50		50 to 500	< 50	< 50	< 50
CCN1CCC(Nc2ccc3c(c2)/C(=C(/c2nc(C)c[nH]2)c2ccc(F)cc2F)C(=O)N3)CC1 [Entry 111, (3Z)-3-[(2,4-difluorophenyl)(4-methyl-1H-imidazol-2-yl)methylidene]-5-[(1-ethylpiperidin-4-yl)amino]-1,3-dihydro-2H-indol-2-one]	500 to 5000	< 50	< 50	500 to 5000		50 to 500	50 to 500	50 to 500	< 50	< 50
